From patent US20040106793A1, “Oxazoles for treating cytokine mediated diseases” (SmithKline Beecham Corporation, priority 1993, published 2004)

The compounds below were run on IL-1 produced by human monocytes (assay: Interleukin 1 (IL-1) production by LPS-stimulated human monocytes). Details: human peripheral blood monocytes, compound 1 h before lipopolysaccharide (50 ng/ml), 24 h at 37° C.; IL-1 in supernatant by bioassay (EL-4) or ELISA.
Type: cell-based
Method: Human peripheral blood monocytes were isolated and purified from either fresh blood preparations from volunteer donors, or from blood bank buffy coats, according to the procedure of Colotta et al, J Immunol, 132, 936 (1984). These monocytes (1×10^6) were plated in 24-well plates at a concentration of 1-2 million/ml per well. The cells were allowed to adhere for 2 hours, after which time non-adherent cells were removed by gentle washing. Test compounds were then added to the cells for 1 h before the addition of lipopolysaccharide (50 ng/ml), and the cultures were incubated at 37° C. for an additional 24 h. At the end of this period, culture supernatants were removed and clarified of cells and all debris. Culture supernatants were then immediately assayed for IL-1 biological activity, either by the method of Simon et al., J. Immunol. Methods, 84, 85, (1985) (based on ability of IL-1 to stimulate a Interleukin 2 producing cell line (EL-4) to secrete IL-2, in concert with A23187 ionophore) or the method of Lee et al., J. ImmunoTherapy, 6 (1), 1-12 (1990) (ELISA assay).

| SMILES | inhibition of in vitro IL-1 produced by human monocytes |
| --- | --- |
| COc1cccc(-c2oc(C)nc2-c2ccncc2)c1 [Example 1, 5-(3-Methoxyphenyl)-2-methyl-4-(4-pyridyl)oxazole] | inhibitors |
| Cc1nc(-c2ccncc2)c(-c2ccc(F)cc2)o1 [Example 2, 5-(4-Fluorophenyl)-2-methyl-4-(4-pyridyl)oxazole] | inhibitors |
| Fc1ccc(-c2ncoc2-c2ccncc2)cc1 [Example 7, 4-(4-Fluorophenyl)-5-(4-pyridyl)oxazole] | inhibitors |
